For the assay, the target named is T1, S-nitrosoglutathione reductase (GSNOR) (Homo sapiens, UniProt P11766).
T1 construct: made in house; host or cells: E. coli
As to the kind of experiment: GSNOR assay (inhibition of GSNOR activity, NADH absorbance at 340 nm). In kind it is biochemical. The method, then: Various compounds were tested in vitro for their ability to inhibit GSNOR activity.
GSNOR expression and purification is described in Biochemistry 2000, 39, 10720-10729.
Pre-cultures were grown from stabs of a GSNOR glycerol stock in 2XYT media containing 100 ug/ml ampicillin after an overnight incubation at 37° C. […] GSNOR expression was induced with 0.1% arabinose in an overnight incubation at 20° C.
E. coli cell paste was lysed by nitrogen cavitation and the clarified lysate purified by Ni affinity chromatography on an AKTA FPLC (Amersham Pharmacia). The column was eluted in 20 mM Tris pH 8.0/250 mM NaCl with a 0-500 mM imidazole gradient. Eluted GSNOR fractions containing the Smt-GSNOR fusion were digested overnight with Ulp-1 at 4° C. to remove the affinity tag then re-run on the Ni column under the same conditions. GSNOR was recovered in the flowthrough fraction and for crystallography is further purified by Q-Sepharose and Heparin flowthrough chromatography in 20 mM Tris pH 8.0, 1 mM DTT, 10 uM ZnSO4.
GSNOR assay: GSNO and enzyme/NADH Solutions are made up fresh each day. The solutions are filtered and allowed to warm to room temperature. GSNO solution: 100 mM NaPO4 (pH 7.4), 0.480 mM GSNO. 396 μL of GSNO Solution is added to a cuvette followed by 8 μL of test compound in DMSO (or DMSO only for full reaction control) and mixed with the pipette tip. Compounds to be tested are made up at a stock concentration of 10 mM in 100% DMSO. 2 fold serial dilutions are done in 100% DMSO. 8 μL of each dilution are added to an assay so that the final concentration of DMSO in the assay is 1%. The concentrations of compounds tested range from 100 to 0.003 μM. Enzyme/NADH solution: 100 mM NaPO4 (pH 7.4), 0.600 mM NADH, 1.0 μg/mL GSNO Reductase. 396 μL of the Enzyme/NADH solution is added to the cuvette to start the reaction. The cuvette is placed in the Cary 3E UV/Visible Spectrophotometer and the change in 340 nm absorbance/min at 25° C. is recorded for 3 minutes. The assays are done in triplicate for each compound concentration. IC50's for each compound are calculated using the standard curve analysis in the Enzyme Kinetics Module of SigmaPlot.
Final assay conditions: 100 mM NaPO4, pH 7.4, 0.240 mM GSNO, 0.300 mM NADH, 0.5 μg/mL GSNO Reductase, and 1% DMSO. Final volume: 800 μL/cuvette.

[1] abbreviates: GSNOR inhibitor activity, Tables 1-6, read-out: IC50 range.
Where [2] appears, read: Table 7, GSNOR inhibition, IC50 range class a/b/c, read-out: IC50.
Where [3] appears, read: Table 8, GSNOR inhibition, IC50 range class a/b/c, read-out: IC50.

Structures are written as SMILES. Read-outs that look alike come from different tables or passages of the source.

A word on the IC50: it is the concentration that gives 50% inhibition.

T1 sequence (P11766 whole entry): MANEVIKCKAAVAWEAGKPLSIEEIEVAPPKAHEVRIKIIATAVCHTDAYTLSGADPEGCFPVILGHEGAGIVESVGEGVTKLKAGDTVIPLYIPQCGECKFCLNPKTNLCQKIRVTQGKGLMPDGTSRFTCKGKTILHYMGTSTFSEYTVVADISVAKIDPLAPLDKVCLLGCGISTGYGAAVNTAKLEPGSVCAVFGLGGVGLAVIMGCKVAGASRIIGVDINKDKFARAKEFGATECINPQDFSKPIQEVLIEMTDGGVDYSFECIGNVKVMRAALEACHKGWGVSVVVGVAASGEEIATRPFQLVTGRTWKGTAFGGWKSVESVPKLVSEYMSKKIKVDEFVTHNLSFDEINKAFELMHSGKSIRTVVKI

With `O=c1[nH]nc(-c2ccc(-c3ccc4cc(O)ccc4n3)cc2)s1` [Compound I-33], the IC50 under setting [1] is 100 to 1000 nM.

Regarding `O=C(O)c1ccc(CC(=O)c2ccc(O)cc2)c(F)c1` [VI-9, 3-fluoro-4-(2-(4-hydroxyphenyl)-2-oxoethyl)benzoic acid], under setting [1], the IC50 was less than 100 nM.

In the case of `O=C(O)c1ccc(Oc2coc3cc(O)ccc3c2=O)cc1` [Compound V-12, 4-(7-hydroxy-4-oxo-4H-chromen-3-yloxy)benzoic acid], the IC50 under setting [1] was in the range of 1000 to 10000 nM.

Take `O=C(O)C1CCN(c2nc3ccc(O)cc3nc2C(F)(F)F)CC1` [II-11]: under setting [1], the concentration for half-maximal inhibition (IC50) was less than 100 nM.

Regarding `O=c1nc(-c2ccc(-c3ccc4cc(O)ccc4n3)cc2)o[nH]1` [Compound I-34], the IC50 under setting [1] was in the range of 100 to 1000 nM.

For the compound `O=C(O)c1ccc(-c2ncc(-c3ccc(O)cc3)cn2)cc1` [VII-14, 4-(5-(4-hydroxyphenyl)pyrimidin-2-yl)benzoic acid], the IC50 under setting [2] lay within 1000 to 10000 nM.

Consider `CC(C)CCn1c(-c2ccc(O)cc2)ccc1-c1ccc(C(=O)O)s1` [VII-27, 5-(5-(4-hydroxyphenyl)-1-isopentyl-1H-pyrrol-2-yl)thiophene-2-carboxylic acid], for which, under setting [2], the IC50 is less than 100 nM.

`O=C(O)c1ccc(-c2ccc3cc(O)ccc3c2)cn1` [III-4]: under setting [1], the IC50 was 1000 to 10000 nM.

As for `O=C(O)c1ccc(NC(=O)c2ccc(O)cc2F)cc1` [VI-15, 4-(2-fluoro-4-hydroxybenzamido)benzoic acid], the half-inhibitory concentration (IC50) under setting [1] lay in the range of 100 to 1000 nM.

For `COc1cc(C(=O)O)ccc1-c1cc(F)c2cc(O)ccc2n1` [Compound I-48, 4-(4-fluoro-6-hydroxyquinolin-2-yl)-3-methoxybenzoic acid], the IC50 under setting [1] is less than 100 nM.

Take `COCCn1c(-c2ccc(O)cc2)ccc1-c1ccc(C(=O)O)cc1` [VII-33, 4-(5-(4-hydroxyphenyl)-1-(2-methoxyethyl)-1H-pyrrol-2-yl)benzoic acid]: the IC50 under setting [2] is 100 to 1000 nM.

Turning to `O=C(O)c1ccc(CS(=O)(=O)c2ccc(O)cc2)c(F)c1` [VI-26, 3-fluoro-4-(((4-hydroxyphenyl)sulfonyl)methyl)benzoic acid], under setting [1], the IC50 was less than 100 nM.

For the compound `Cc1cc2cc(O)ccc2c(=O)n1-c1ccc(C(=O)O)cc1` [VIII-13, 4-(6-hydroxy-3-methyl-1-oxoisoquinolin-2(1H)-yl)benzoic acid], under setting [3], the IC50 is 100 to 1000 nM.

Turning to `O=C(O)c1ccc(-c2nc3ccc(O)cc3nc2C(F)(F)F)c(Cl)c1` [II-8], under setting [1], the half-inhibitory concentration (IC50) was less than 100 nM.

On to `O=c1[nH]c(-c2ccc(-c3c(C(F)(F)F)oc4cc(O)ccc4c3=O)c(Cl)c2)no1` [IV-40], for which, under setting [1], the IC50 was less than 100 nM.

For `O=C(O)c1ccc(CS(=O)(=O)c2ccc(O)c(F)c2)c(F)c1` [VI-20, 3-fluoro-4-(((3-fluoro-4-hydroxyphenyl)sulfonyl)methyl)benzoic acid], the IC50 under setting [1] was less than 100 nM.

With `O=C(O)c1ccc(CC(=O)c2cc(F)c(O)c(F)c2)c(F)c1` [VI-8, 4-(2-(3,5-difluoro-4-hydroxyphenyl)-2-oxoethyl)-3-fluorobenzoic acid], the IC50 under setting [1] fell in the range of 100 to 1000 nM.

In the case of `N#Cc1cc(C(=O)O)ccc1-c1ccc2cc(O)ccc2n1` [Compound I-49, 3-cyano-4-(6-hydroxyquinolin-2-yl)benzoic acid], the concentration for half-maximal inhibition (IC50) under setting [1] is less than 100 nM.

In the case of `Oc1ccc2nc(-c3ccc(-c4nn[nH]n4)s3)ccc2c1` [Compound I-38], under setting [1], the IC50 is 100 to 1000 nM.

For the compound `N#Cc1cc(C(=O)O)ccc1-c1ccc2cc(O)ccc2c1` [III-6], the IC50 under setting [1] is less than 100 nM.

With `Cn1c(-c2ccc(C(=O)O)cc2)cc2ccc(O)cc2c1=O` [VIII-11, 4-(7-hydroxy-2-methyl-1-oxo-1,2-dihydroisoquinolin-3-yl)benzoic acid], under setting [3], the IC50 was in the range of 100 to 1000 nM.

With `O=C(O)c1ccc(-c2cc3ccc(O)cc3cc2O)cc1` [III-25, 4-(3,6-dihydroxynaphthalen-2-yl)benzoic acid], the 50% inhibitory concentration (IC50) under setting [1] was 1000 to 10000 nM.

For the compound `N#Cc1cc2cc(O)ccc2nc1-c1ccc(C(=O)O)cc1` [Compound I-52, 4-(3-cyano-6-hydroxyquinolin-2-yl)benzoic acid], under setting [1], the IC50 was less than 100 nM.

For the compound `O=C(O)[C@H]1CC[C@@H](c2nc3ccc(O)cc3nc2C(F)(F)F)CC1` [II-28, (cis)-4-(6-hydroxy-3-(trifluoromethyl)quinoxalin-2-yl)cyclohexanecarboxylic acid], under setting [1], the concentration for half-maximal inhibition (IC50) lay within 1000 to 10000 nM.

For the compound `O=C(O)c1ccc(N2CCc3cc(O)ccc3C2=O)cc1` [VIII-4, 4-(6-hydroxy-1-oxo-3,4-dihydroisoquinolin-2(1H)-yl)benzoic acid], the IC50 under setting [3] was less than 100 nM.

On to `O=C(O)c1ccc(-c2c(C(F)(F)F)oc3cc(O)ccc3c2=O)c(Cl)c1` [IV-15], for which the half-maximal inhibitory concentration (IC50) under setting [1] was less than 100 nM.

Turning to `COc1cc(C(=O)O)ccc1-c1cc(F)c2c(F)c(O)ccc2c1` [III-43, 4-(4,5-difluoro-6-hydroxynaphthalen-2-yl)-3-methoxybenzoic acid], the IC50 under setting [1] was less than 100 nM.

In the case of `CC1Cc2cc(O)ccc2C(=O)N1[C@H]1CC[C@H](C(=O)O)CC1` (stereo partly drawn) [VIII-17, (trans)-4-(6-hydroxy-3-methyl-1-oxo-3,4-dihydroisoquinolin-2(1H)-yl)cyclohexanecarboxylic acid], the IC50 under setting [3] is 1000 to 10000 nM.

For `Cc1cc(C(=O)O)ccc1-c1cc(F)c2c(F)c(O)ccc2c1` [III-41, 4-(4,5-difluoro-6-hydroxynaphthalen-2-yl)-3-methylbenzoic acid], under setting [1], the half-maximal inhibitory concentration (IC50) is less than 100 nM.

In turn, `O=C(O)c1ccc(-n2c(C(F)(F)F)nc3cc(O)ccc3c2=O)cc1` [VIII-2, 4-(7-hydroxy-4-oxo-2-(trifluoromethyl)quinazolin-3(4H)-yl)benzoic acid] gave a half-inhibitory concentration (IC50) of 100 to 1000 nM.

In the case of `O=c1c(-c2ccc(-c3nnn[nH]3)cc2)c(C(F)F)oc2cc(O)ccc12` [IV-27], under setting [1], the IC50 was less than 100 nM.

Regarding `O=C(O)c1ccc(-c2ccc3c(F)c(O)ccc3n2)cc1` [Compound I-53, 4-(5-fluoro-6-hydroxyquinolin-2-yl)benzoic acid], under setting [1], the IC50 was less than 100 nM.

With `O=C(O)c1ccc(-c2ccc3cc(O)ccc3c2)nc1` [III-7], under setting [1], the half-inhibitory concentration (IC50) lay in the range of 100 to 1000 nM.

Take `O=C(O)C1CCN(c2nc3ccc(O)cc3cc2C(F)(F)F)CC1` [Compound I-41]: the IC50 under setting [1] is less than 100 nM.

`O=C(O)[C@H]1CC[C@H](c2nc3ccc(O)cc3nc2C(F)(F)F)CC1` [II-27, (trans)-4-(6-hydroxy-3-(trifluoromethyl)quinoxalin-2-yl)cyclohexanecarboxylic acid]: under setting [1], the concentration for half-maximal inhibition (IC50) was less than 100 nM.

For `O=C(O)c1ccc(-c2csc(-c3ccc(O)cc3)c2)s1` [VII-20, 5′-(4-hydroxyphenyl)-[2,3′-bithiophene]-5-carboxylic acid], under setting [2], the IC50 is 100 to 1000 nM.

On to `CCCn1c(-c2ccc(O)cc2)ccc1-c1ccc(C(=O)O)cc1` [VII-37, 4-(5-(4-hydroxyphenyl)-1-propyl-1H-pyrrol-2-yl)benzoic acid], for which the concentration for half-maximal inhibition (IC50) under setting [2] was less than 100 nM.

In the case of `O=C(O)c1ccc(-c2ccc3cc(O)ccc3n2)cc1Cl` [Compound I-9], the IC50 under setting [1] was in the range of 1000 to 10000 nM.

In the case of `O=C(O)c1ccc(NCc2ccc(O)c(F)c2)c(F)c1` [VI-31, 3-fluoro-4-((3-fluoro-4-hydroxybenzyl)amino)benzoic acid], the IC50 under setting [1] was 1000 to 10000 nM.

Take `O=C(O)c1ccc(Oc2c(-c3ccccc3)oc3cc(O)ccc3c2=O)cc1` [Compound V-2, 4-((7-hydroxy-4-oxo-2-phenyl-4H-chromen-3-yl)oxy)benzoic acid]: under setting [1], the half-maximal inhibitory concentration (IC50) is 1000 to 10000 nM.

As for `O=C(O)C1CC=C(c2ccc3cc(O)ccc3n2)CC1` (centres unmarked) [Compound I-16], the half-maximal inhibitory concentration (IC50) under setting [1] fell in the range of 100 to 1000 nM.

Turning to `CC(C)CCCn1c(-c2ccc(O)cc2)ccc1-c1ccc(C(=O)O)cc1` [VII-30, 4-(5-(4-hydroxyphenyl)-1-(4-methylpentyl)-1H-pyrrol-2-yl)benzoic acid], the IC50 under setting [2] was less than 100 nM.

In the case of `O=C(O)c1ccc(CC(=O)c2ccc(O)cc2Cl)c(F)c1` [VI-6, 4-(2-(2-chloro-4-hydroxyphenyl)-2-oxoethyl)-3-fluorobenzoic acid], under setting [1], the 50% inhibitory concentration (IC50) was less than 100 nM.

Turning to `O=C(O)c1ccc(N2CCc3cc(O)ccc3C2)cc1` [VIII-6, 4-(6-hydroxy-3,4-dihydroisoquinolin-2(1H)-yl)benzoic acid], the IC50 under setting [3] is 1000 to 10000 nM.

For the compound `O=C(O)c1ncc(-c2ccc3cc(O)ccc3c2)cn1` [III-14], the IC50 under setting [1] was in the range of 1000 to 10000 nM.

With `O=C(O)c1ccc(COc2ccc(O)cc2F)c(F)c1` [VI-19, 3-fluoro-4-((2-fluoro-4-hydroxyphenoxy)methyl)benzoic acid], the half-maximal inhibitory concentration (IC50) under setting [1] fell in the range of 100 to 1000 nM.

As to `Oc1ccc2nc(-c3ccc(-c4nn[nH]n4)cc3Cl)ccc2c1` [Compound I-23], under setting [1], the IC50 was less than 100 nM.

The values above are taken from US20140094465A1, “Compounds as S-Nitrosoglutathione Reductase Inhibitors” (N30 PHARMACEUTICALS, INC., priority 2011, published 2014).
